In patent US4197407A, “Prostenoic acids and esters” (American Cyanamid Company, priority 1977, dated 1980):

How the values were obtained:
[1] = system: mean arterial blood pressure; test: Hypotensive activity in anesthetized rats; type: in vivo, Male Wistar strain rats; conditions: intravenous infusion over one minute
Protocol: This procedure is a modification of the technique described by Pike, et al., Prostaglandins, Nobel Symposium 2, Stockholm, June, 1966, pg. 165.
Male Wistar strain rats (Royal Hart Farms) averaging approximately 250 g in weight are fastened to rat boards in a supine position by means of canvas vests and limb ties. The animals are anesthetized with a 900 mg/kg intraperitoneal dose of urethane. The left carotid artery is cannulated with polyethylene 50 tubing to measure arterial blood pressure and the left external jugular vein is cannulated with polyethylene 50 tubing for drug infusion. The animals are allowed to equilibrate for 15-30 minutes. The test compound is infused in 0.5 ml of saline, over a one minute period, at the indicated dose level, using a Harvard model 940 infusion pump and a 6 cc syringe at speed 5. Each drug dose is flushed with 0.4 ml of saline. The mean arterial blood pressure is measured before and after drug administration using a Statham model P23Db pressure transducer and a Brush model 260 recorder. The percent depression in mean arterial blood pressure and the duration of at least a 10% depression induced by representative compounds of this invention are recorded in Table C.

[2] = system: collagen induced platelet aggregation; test: Inhibition of platelet aggregation in vitro, collagen induced; type: cell-based, Human; design: key: (-): Inhibition; (+): No inhibition
Text: (§1) It is well known that platelet aggregation inhibitors may be useful as anti-thrombotic drugs. Inhibition of platelet aggregation can be conveniently measured in vitro by monitoring changes in optical density and/or light transmission in platelet rich plasma upon addition of suitable aggregating agents such as adenosine diphosphate, epinephrine, thrombin or collagen. Alternatively, platelet aggregation can be measured in vitro using platelet rich plasma obtained at various time intervales from animals given inhibitors by an oral or parenteral route.
(§2) Human […] is incubated with modified Tyrode's solution in a proportion of 40-50% human […]. The test compounds are added at varying concentrations and after 5 minutes incubation, an aggregating agent such as adenosine diphosphate or collagen is added. The change in optical density (light transmission) is monitored by eye and inhibition is recorded as a (-) or lack of inhibition is recorded as a (+). Test compounds are considered active if they inhibit adenosine diphosphate or collagen induced aggregation at a concentration of 25 mcg/ml or less within 5-10 minutes.

[3] = system: adenosine diphosphate induced platelet aggregation; test: Inhibition of platelet aggregation in vitro, adenosine diphosphate induced; type: cell-based, Human; design: key: (-): Inhibition; (+): No inhibition
Text: as §1, §2

[4] = system: respiratory depression produced by arachidonate; test: Inhibition of respiratory depression produced by arachidonate in mice, in vivo; design: species or system Swiss, male, albino mice; conditions: 2 hours before 50 mg/kg i.v. sodium arachidonate
Protocol: Swiss, male, albino mice, weighing about 20 g, are placed in control and drug groups, each with 4-6 mice and fasted. The drug mice are dosed with 50, 25, 10, or 1 mg/kg of a test compound suspended in volumes of 0.5, 0.25, or 0.10 ml of 2% starch solution. Control animals receive starch solution alone. After 2 hours all the mice are challenged with an intravenous dose of 50 mg/kg of sodium arachidonate in a volume of 0.2 ml, by tail vein. The onset of effect and duration of respiratory depression and recovery or death is quantitated. The percent inhibition of respiratory depression is computed from the mean of the drug group and the mean of the control group. Compounds giving 30% or more inhibition at 25 mg/kg or less are considered active.

[5] = system: bronchospasms elicited by 5-hydroxytryptamine; test: Bronchodilator activity (Konzett procedure) against 5-hydroxytryptamine; type: in vivo, guinea pigs; conditions: Cavia porcellus; three logarithmic cumulative intravenous doses; spasmogen 5-hydroxytryptamine i.v.
Protocol: (§3) Bronchodilator activity is determined in guinea pigs against bronchospasms elicited by intravenous injections of 5-hydroxytryptamine, histamine or acetylcholine by the Konzett procedure. [See J. Lulling, P. Lievens, F. El Sayed and J. Prignot, Arzeneimittel-Forschung, 18, 995 (1968).] In Table D, bronchodilator activity for representative compounds of this invention against one or more of the three spasmogenic agents is expressed as an ED50 determined from the results obtained with three logarithmic cumulative intravenous doses.

[6] = system: bronchospasms elicited by acetylcholine; test: Bronchodilator activity (Konzett procedure) against acetylcholine; type: in vivo, guinea pigs; conditions: Cavia porcellus; three logarithmic cumulative intravenous doses; spasmogen acetylcholine i.v.
Protocol: as §3

[7] = system: bronchospasms elicited by histamine; test: Bronchodilator activity (Konzett procedure) against histamine; type: in vivo, guinea pigs; conditions: Cavia porcellus; three logarithmic cumulative intravenous doses; spasmogen histamine i.v.
Protocol: as §3

O=C(O)CCCCCC[C@H]1C(=O)CC[C@@H]1/C=C/C1(O)CCCCC1 (relative stereo) [nat(and ent)-15-Hydroxy-9-oxo-15,16-tetramethylene-17,18,19,20-tetranor-13-trans-prostenoic Acid]
Duration in Minutes of at Least 10% Depression ([1]; dose 1.8 mg/kg): 4 min
Percent Depression of Mean Arterial Blood Pressure ([1]; dose 1.8 mg/kg): -9%
Inhibition of Platelet Aggregation - In Vitro, Collagen ([2]; drug concentration 0.25 μg/ml): (+)
Inhibition of Platelet Aggregation - In Vitro, Collagen ([2]; drug concentration 2.5 μg/ml): (+)
Inhibition of Platelet Aggregation - In Vitro, Collagen ([2]; drug concentration 25 μg/ml): (-)
Inhibition of Platelet Aggregation - In Vitro, Collagen ([2]; drug concentration 250 μg/ml): (-)
Inhibition of Platelet Aggregation - In Vitro, Adenosine Diphosphate ([3]; drug concentration 0.25 μg/ml): (+)
Inhibition of Platelet Aggregation - In Vitro, Adenosine Diphosphate ([3]; drug concentration 2.5 μg/ml): (+)
Inhibition of Platelet Aggregation - In Vitro, Adenosine Diphosphate ([3]; drug concentration 25 μg/ml): (-)
Inhibition of Platelet Aggregation - In Vitro, Adenosine Diphosphate ([3]; drug concentration 250 μg/ml): (-)
Inhibition of Respiratory Depression - In Vivo, Percent Inhibition ([4]; 1 mg/kg): 33%

CCCC[C@H]1CCC[C@@]1(O)/C=C/[C@H]1CCC(=O)[C@@H]1CCCCCCC(=O)O (relative stereo) [nat-15S,16S(and ent-15R,16R)-15-Hydroxy-9-oxo-15,16-trimethylene-13-trans-prosenoic Acid]
ED50 [5]: 0.112 µg/kg
ED50 [6]: 0.413 µg/kg

CCCC[C@@H]1CCC[C@]1(O)/C=C/[C@H]1CCC(=O)[C@@H]1CCCCCCC(=O)OCC (relative stereo) [Ethyl nat-15R,16R(and ent-15S,16S)-15-hydroxy-9-oxo-15,16-trimethylene-13-trans-prostenoate]
Duration in Minutes of at Least 10% Depression ([1]; dose 4.0 mg/kg): 4 min
Percent Depression of Mean Arterial Blood Pressure ([1]; dose 4.0 mg/kg): -16%

CCCC[C@H]1CCC[C@@]1(O)/C=C/[C@H]1CCC(=O)[C@@H]1CCCCCCC(=O)OCC (relative stereo) [Ethyl nat-15S,16S(and ent-15R,16R)-15-hydroxy-9-oxo-15,16-trimethylene-13-trans-prostenoate]
Duration in Minutes of at Least 10% Depression ([1]; dose 1.6 mg/kg): 5 min
Percent Depression of Mean Arterial Blood Pressure ([1]; dose 1.6 mg/kg): -43%

O=C(O)CCC/C=C\C[C@H]1C(=O)C=C[C@@H]1/C=C/C1(O)CCCCC1 (relative stereo) [nat(and ent)-15-Hydroxy-9-oxo-15,16-tetramethylene-17,18,19,20-tetranor-13-trans,5-cis,10-prostatrienoic acid]
ED50 [7]: 0.632 µg/kg
ED50 [5]: > 3.2 µg/kg
Inhibition of Platelet Aggregation - In Vitro, Collagen ([2]; drug concentration 25 μg/ml): (+)
Inhibition of Platelet Aggregation - In Vitro, Collagen ([2]; drug concentration 250 μg/ml): (-)
Inhibition of Platelet Aggregation - In Vitro, Adenosine Diphosphate ([3]; drug concentration 25 μg/ml): (+)
Inhibition of Platelet Aggregation - In Vitro, Adenosine Diphosphate ([3]; drug concentration 250 μg/ml): (-)
ED50 [6]: > 3.2 µg/kg

O=C(O)CCCCCC[C@H]1C(=O)C[C@@H](O)[C@@H]1/C=C/C1(O)CCCCC1 (relative stereo) [nat(and ent)-11α,15-Dihydroxy-9-oxo-15,16-tetramethylene-17,18,19,20-tetranor-13-trans-prostenoic Acid]
Duration in Minutes of at Least 10% Depression ([1]; dose 2.1 mg/kg): 16 min
Percent Depression of Mean Arterial Blood Pressure ([1]; dose 2.1 mg/kg): -39%
Inhibition of Platelet Aggregation - In Vitro, Collagen ([2]; drug concentration 0.25 μg/ml): (+)
Inhibition of Platelet Aggregation - In Vitro, Collagen ([2]; drug concentration 2.5 μg/ml): (-)
Inhibition of Platelet Aggregation - In Vitro, Collagen ([2]; drug concentration 25 μg/ml): (-)
Inhibition of Platelet Aggregation - In Vitro, Collagen ([2]; drug concentration 250 μg/ml): (-)
Inhibition of Platelet Aggregation - In Vitro, Adenosine Diphosphate ([3]; drug concentration 0.25 μg/ml): (+)
Inhibition of Platelet Aggregation - In Vitro, Adenosine Diphosphate ([3]; drug concentration 2.5 μg/ml): (-)
Inhibition of Platelet Aggregation - In Vitro, Adenosine Diphosphate ([3]; drug concentration 25 μg/ml): (-)
Inhibition of Platelet Aggregation - In Vitro, Adenosine Diphosphate ([3]; drug concentration 250 μg/ml): (-)

CCCCC1CCCC1(O)/C=C/C1CCC(=O)C1CCCCCCC(=O)OCC [Ethyl nat-15S,16R(and ent-15R,16S)-15-hydroxy-9-oxo-15,16-trimethylene-13-trans-prostenoate and Ethyl nat-15R,16S(and ent-15S,16R)-15-hydroxy-9-oxo-15,16-trimethylene-13-trans-prostenoate]
Duration in Minutes of at Least 10% Depression ([1]; dose 1.9 mg/kg): 7 min
Percent Depression of Mean Arterial Blood Pressure ([1]; dose 1.9 mg/kg): -18%

O=C(O)CCC/C=C\C[C@H]1C(=O)C[C@@H](O)[C@@H]1/C=C/C1(O)CCCCC1 (relative stereo) [nat(and ent)-11α,15-Dihydroxy-9-oxo-15,16-tetramethylene-17,18,19,20-tetranor-5-cis,13-trans-prostadienoic Acid]
Duration in Minutes of at Least 10% Depression ([1]; dose 2.2 mg/kg): 23 min
Percent Depression of Mean Arterial Blood Pressure ([1]; dose 2.2 mg/kg): -31%
Inhibition of Platelet Aggregation - In Vitro, Collagen ([2]; drug concentration 0.25 μg/ml): (+)
Inhibition of Platelet Aggregation - In Vitro, Collagen ([2]; drug concentration 2.5 μg/ml): (-)
Inhibition of Platelet Aggregation - In Vitro, Collagen ([2]; drug concentration 25 μg/ml): (-)
Inhibition of Platelet Aggregation - In Vitro, Collagen ([2]; drug concentration 250 μg/ml): (-)
Inhibition of Platelet Aggregation - In Vitro, Adenosine Diphosphate ([3]; drug concentration 0.25 μg/ml): (+)
Inhibition of Platelet Aggregation - In Vitro, Adenosine Diphosphate ([3]; drug concentration 2.5 μg/ml): (-)
Inhibition of Platelet Aggregation - In Vitro, Adenosine Diphosphate ([3]; drug concentration 25 μg/ml): (-)
Inhibition of Platelet Aggregation - In Vitro, Adenosine Diphosphate ([3]; drug concentration 250 μg/ml): (-)
Inhibition of Respiratory Depression - In Vivo, Percent Inhibition ([4]; 10 mg/kg): 6%
Inhibition of Respiratory Depression - In Vivo, Percent Inhibition ([4]; 25 mg/kg): 14%
ED50 [6]: 0.115 µg/kg

O=C(O)CCCCCC[C@H]1C(=O)CC[C@@H]1/C=C/C1=CCCCC1 (relative stereo) [nat(and ent)-9-oxo-15,16-Tetramethylene-17,18,19,20-tetranor-15,13-trans-prostadienoic Acid]
Inhibition of Platelet Aggregation - In Vitro, Collagen ([2]; drug concentration 25 μg/ml): (-)
Inhibition of Platelet Aggregation - In Vitro, Collagen ([2]; drug concentration 250 μg/ml): (-)
Inhibition of Platelet Aggregation - In Vitro, Adenosine Diphosphate ([3]; drug concentration 25 μg/ml): (-)
Inhibition of Platelet Aggregation - In Vitro, Adenosine Diphosphate ([3]; drug concentration 250 μg/ml): (-)
Inhibition of Respiratory Depression - In Vivo, Percent Inhibition ([4]; 25 mg/kg): 28%

CCCCC1CCCC1(O)/C=C/C1C(O)CC(=O)C1C/C=C\CCCC(=O)O [nat-15S,16R(and ent-15R,16S) and nat-15R,16S-(and ent-15S,16R)-11α,15-Dihydroxy-9-oxo-15,16-trimethylene-13-trans-5-cis-prostadienoic Acid]
Duration in Minutes of at Least 10% Depression ([1]; dose 1.7 mg/kg): > 10 min
Percent Depression of Mean Arterial Blood Pressure ([1]; dose 1.7 mg/kg): -47%
Inhibition of Platelet Aggregation - In Vitro, Collagen ([2]; drug concentration 250 μg/ml): (+)
Inhibition of Platelet Aggregation - In Vitro, Adenosine Diphosphate ([3]; drug concentration 25 μg/ml): (+)
Inhibition of Platelet Aggregation - In Vitro, Adenosine Diphosphate ([3]; drug concentration 250 μg/ml): (-)

CCCCC1CCCC1(O)/C=C/C1CCC(=O)C1CCCCCCC(=O)O [nat-15S,16R(and ent-15R,16S) and nat-15R,16S(and ent-15S,16R)-15-Hydroxy-9-oxo-15,16-trimethylene-13-trans-prostenoic Acid]
ED50 [5]: 0.32 µg/kg
Duration in Minutes of at Least 10% Depression ([1]; dose 2.0 mg/kg): 4 min
Percent Depression of Mean Arterial Blood Pressure ([1]; dose 2.0 mg/kg): -38%
